Series [1] concerns enriched microglia primary cultures from apoE deficient mouse pups. Nature of the series: LPS-stimulated nitric oxide (nitrite) secretion by enriched microglia primary cultures. The format is cell-based. As to conditions: peptide 0 μM to 1000 μM, LPS 100 ng/ml, after 48 hours. The protocol:
Culture preparation and characterization: Mixed glial cell cultures were prepared from: (a) wildtype (C57B16; Jackson Laboratories) mouse pups; (b) ApoE deficient mutant mouse pups (ApoE-deficient mice), and (c) transgenic mouse pups expressing human ApoE3 but not murine ApoE (ApoE3 mice). See Xu et al., Neurobiol. Dis. 3:229 (1996) regarding the creation and characterization of the transgenic mice. Mixed glial cell cultures were prepared as has been described. See McMillian et al., Neurochem. 58:1308 (1992); Laskowitz et al., J. Neuroimmunol. 76:70 (1997). Briefly, brains were removed from 2-4 day old pups, cleaned of membranes and blood vessels, mechanically dispersed in Ca^+2-free media, and collected by centrifugation. Cells were then plated in DMEM/F12 (containing 10% fetal calf serum, 1% penicillin/streptomycin, Gibco #15070), one brain per 25 cm flask. […]
Nitrite Quantification The production of NO was assessed by measuring the accumulation of nitrite, which was quantified using a calorimetric reaction with Griess reagent (0.1% N-1-naphthylethylenediamine dihydrochloride, 1% sulfanilamide, and 2.5% H3PO4). Absorbance was measured at 570 nm by spectrophotometry. […]
Enriched microglia primary cultures were prepared from the brains of apoE deficient mouse pups as described in Example 1, above. […] Nitric oxide production was assessed as described in Example 1. […]

Series [2] relates to primary hippocampal neurons. Conditions: cited from earlier work.

Turning to “LRKLRKRLL LRKLRKRLL (LRKLRKRLLLRKLRKRLL; fragment of ApoE containing LDL receptor binding site) [SEQ ID NO:3]”, the “nitric oxide secretion by activated microglia” value in series [1] is “dose-dependent decrease in nitric oxide secretion”. The neuronal cell death entry in series [2] is on record as “induced neuronal cell death”.
